Measured values published in patent US10039743B2, “Method of treating presbyopia using dithiol compounds and their derivatives” (Encore Health, LLC, priority 2009, dated 2018).

Columns and labels:
[1] = cited from earlier work
mouse lenses = test: Increase in elasticity: change in lens diameter (ΔD) under coverslip load in lens organ culture; assay type: cell-based; conditions: lipoic acid at concentrations ≥9.6 μM, 8-15 hours incubation, vs control; p<0.0001
Method: The relative change in Young's modulus (E) can be calculated as the cubic value derived from the ΔD of the control divided by the ΔD of the experimental or E fractional change=(ΔD con/ΔDexp)^3. Pairs of mouse lenses were incubated in medium 200 supplemented with an antibiotic, an antimycotic, in the presence or absence of lipoic acid (concentrations ranging from 0.5 μM to 500 μM) for 8-15 hours. Each lens was removed from medium, weighed, and photographed on a micrometer scale. A coverslip of known weight (0.17899±0.00200 g) was placed on the lens, and the lens was photographed again on the micrometer scale. The diameter of each lens with and without the coverslip was determined from the photographs. The change in lens diameter produced by the force (coverslip) was computed ΔD=(Dwithcoverslip−Dwithoutcoverslip).

[2] = system: protein disulfides in the mouse lenses; test: Decrease in disulfide bonds: protein SH / SS groups in lens homogenates by differential fluorescent alkylation; assay type: cell-based
Method: FIG. 5 depicts a scattergram of the percent of the total protein SH groups in disulfide bonds. Free SH groups were alkylated with 4-acctamido-4′-maleimidylstilbcne-2,2′-sulfonic acid (c, 1 μM, 5 μM, 9.6 μM, 50 μM, 96 μM) or 7-diethylamino-3-(4′maleimidylphenyl)-4-methyl coumarin (500 μM, and 500 μM c). Following removal of the first alkylating agent, the S—S bonds were reduced and alkylated with fluorescein-5-maleimide. Absorption spectra were used to calculated total protein (A280 nm), free protein SH (A322 or A384), and protein SS (A490) using the appropriate extinction coefficients. The symbol $ indicates statistically significant difference of mean with mean of control (c, p≤0.05).
Mouse lenses were homogenized in a denaturing buffer containing a fluorescent alkylating agent to modify the free SH groups. After removing the alkylating agent homogenates were reduced and alkylated with a different fluorescent alkylating agent. Absorption spectra of the modified proteins were used to calculate free protein SH and protein SS groups.

N[C@@H](CSSC[C@H](N)C(=O)O)C(=O)O [cystine, 3,3′-disulanedylbis(2-aminopropanoic acid)]
limit of solubility in aqueous solution [1]: 20 µM

O=C(O)CCCCC1CCSS1 (stereo not shown) [lipoic acid, 5-(1,2-dithiolan-3-yl)pentanoic acid]
change in lens diameter produced by the force (coverslip), ΔD (mouse lenses): statistically significant increase | percent of total protein SH groups in disulfide bonds, mean vs 500 μM control ([2]; 500 μM lipoic acid vs 500 μM control, p=0.027): significantly different | protein disulfides (percent of total protein SH groups in disulfide bonds) ([2]; lipoic acid at concentrations ≥9.6 μM, vs control, p≤0.05): statistically significant decrease
